Laboratory results published in patent publication US20180193365A1, “USE OF HYDROGEN SULFIDE TO PREVENT LENS OPACIFICATION” (Creighton University, priority 2017, published 2018).
Entries after “also recorded” stand apart in the source; their conditions may differ.

How the values were obtained:
cultured bovine lenses [1] = test: H2O2-induced lens degradation/opacification in cultured bovine lenses (light transmittance, photographs); type: cell-based
glutathione (GSH) = conditions: 50 mM; 120 hours
cultured bovine lenses [2] = test: Lens degradation/opacification of DMEM-cultured bovine lenses (light transmittance, photographs); type: cell-based; conditions: 120 hours; for attenuation of light transmittance compared to untreated DMEM lenses (time=0 hours): 420 nm

SMILES	decrease of light transmittance compared to DMEM-cultured lenses (time=0 hour) (cultured bovine lenses [1]; 50 mM, after 120 hours) [%]	attenuation of GSH content compared to untreated lenses (time=0 hours) (glutathione (GSH)) [%]	attenuation of light transmittance compared to untreated DMEM lenses (time=0 hours) (cultured bovine lenses [2]; 3 mM) [%]	attenuation of light transmittance compared to untreated DMEM lenses (time=0 hours) (cultured bovine lenses [2]; 10 mM) [%]	qualitative assessment of lens opacity (photographs against grid) (cultured bovine lenses [2]; 10 mM)	attenuation of H2O2-induced inhibition of light transmittance (cultured bovine lenses [1]; 3 mM, H2O2 50 mM, 120 hours) [%]	qualitative assessment of H2O2-induced lens opacity (photographs against grid) (cultured bovine lenses [1]; 3 mM, H2O2 50 mM, 120 hours)	protection from peroxide-induced lens degradation (cultured bovine lenses [1]; 10 mM, H2O2 50 mM, 120 hours)
OO [H2O2, hydrogen peroxide]	36.76	82.56	–	–	–	–	–	–
O=C1O[C@H]([C@@H](O)CO)C(O)=C1O [ascorbic acid]	–	–	60.57	57.42	accelerated the degradation process; also recorded: accelerated lens degradation; also recorded: accelerated clouding of the lens	9.22	protected lenses from peroxide-induced degradation	failed to protect
